From article PMC3833293 (ACS Chemical Biology, 2013) come the findings set out here.

For test [1], the system named is wild-type and drug-resistant HIV clones. As to the kind of experiment: Monogram drug susceptibility assays, profile across viral panel. The test is classed as cell-based, HIV-1. As to conditions: weakest EC50 to a variant divided by that to wild-type.
Test [2] concerns wild-type HIV-1 protease and drug-resistant variants M1, M2, M3, M4. Briefly: FRET enzyme inhibition, profile across wild type and mutant panel. As to conditions: weakest Ki to a drug-resistant variant divided by Ki to wild type. The test is classed as biochemical.
For test [3], the target named is HIV-1 protease M2 (D30N, N88D) (Human immunodeficiency virus type 1 group M subtype B, UniProt P03369, D520N/N578D). As to the kind of experiment: FRET enzyme inhibition assay, M2 variant. Format: biochemical.
Test [4] addresses wild-type HIV-1 protease (Human immunodeficiency virus type 1 group M subtype B, UniProt P03369). Briefly: FRET enzyme inhibition assay, wild-type protease. The test is classed as biochemical.
Test [5] has as its target HIV-1 protease M4 (I50V, A71V) (Human immunodeficiency virus type 1 group M subtype B, UniProt P03369, A561V/I540V). Briefly: FRET enzyme inhibition assay, M4 variant. The test is classed as biochemical.

In test [1], `COc1ccc(S(=O)(=O)N(CC2CCCCC2)C[C@@H](O)[C@H](Cc2ccccc2)NC(=O)c2cccc(O)c2)cc1` [AF-77] registered a worst-fold activity loss of 2.2 fold. In test [2], `COc1ccc(S(=O)(=O)N(CCCc2ccccc2)C[C@@H](O)[C@H](Cc2ccccc2)NC(=O)c2cccc(O)c2)cc1` [AF-78] showed a worst-fold affinity loss of 98 fold.

In the case of `CC[C@H](C)CN(C[C@@H](O)[C@H](Cc1ccccc1)NC(=O)[C@@H](NC(C)=O)[C@@H](C)CC)S(=O)(=O)c1ccc2ncsc2c1` [AG-23], in test [1], the worst-fold activity loss came to 3.2 fold. For the same molecule, the inhibition constant (Ki) was found to be 0.028 ± 0.025 nM in test [3]; 0.021 ± 0.009 nM in test [4] (Ki, wild type, mean ± standard deviation); 0.092 ± 0.025 nM in test [5]. `CC[C@H](C)[C@H](NC(C)=O)C(=O)N[C@@H](Cc1ccccc1)[C@H](O)CN(CC(C)C)S(=O)(=O)c1ccc(OC)cc1` [AF-68] registered a worst-fold activity loss in test [1] of 4.4 fold. On the same count and under the same terms, then `O=C(N[C@@H](Cc1ccccc1)[C@H](O)CN(CC1CCCCC1)S(=O)(=O)c1ccc2ncsc2c1)c1cccc(O)c1` [AF-72], with 2.6 fold.

Turning to `CC[C@H](C)CN(C[C@@H](O)[C@H](Cc1ccccc1)NC(=O)c1cccc(O)c1)S(=O)(=O)c1ccc(-c2ccno2)s1` [AF-71], the “loss in affinity to wild-type protease compared to parent compound” value in test [4] (AF-71 vs AD-93, AF-80 vs KB-83) was found to be 72 fold.
